Tests used:
[1] = biological target: T1, human C-terminal DNMT3A (a.a. 623-908) (Homo sapiens, UniProt Q9Y6K1); experiment: hDNMT3A restriction-based fluorescence assay; format: biochemical; settings: read-out: hDNMT 3A inhibition, Inhibition (%)
T1 construct: The human C-terminal DNMT3A (a.a. 623-908); made in house
Description: hDNMT3A enzyme inhibition was adapted from the restriction-based fluorescence assay protocol as described in the literature (Ceccaldi et al. ChemBioChem 2011, 12, 1337-1345). Briefly, a 5′-labelled biotin oligonucleotide is hybridized to its complementary strand labelled with 6-carboxyfluorescein at the 3′-end into a 384 well microplate (black Optiplates; Perkin Elmer) pre-coated with avidin. The duplex contains a unique CpG site overlapping with a restriction site of a methylation sensitive restriction enzyme. The human C-terminal DNMT3A (a.a. 623-908), produced as described in the literature (Gros et al. Nucl. Acids Res. 2013, 41(19):e185), was added in each well (200 ng/well) and mixed with the chemical compounds at desired concentrations and freshly prepared AdoMet (20 μM final concentration) to start the reaction in a total volume of 50 μL. After 1 hour incubation at 37° C. each well were washed three times with PBS, Tween-20 0.05%, NaCl (500 mM) and three more times with PBST. Specific fluorescent signals were detected with the methylation-sensitive restriction enzyme HpyCH4IV (NEB) as described and measured on a Perkin Elmer Envision detector. The percentage of inhibition is reported. The formula used to calculate the percentage of inhibition is [(X−Y)/X]×100, where X is the signal determined in the absence of the inhibitor and Y is the signal obtained in the presence of the inhibitor. The concentration at which 50% of efficacy of inhibition is observed (EC50) was determined by analysis of a concentration range of the tested compound in triplicates. The non-linear regression fittings with sigmoidal dose-response (variable slope) were performed with GraphPad Prism 4.03 (GraphPad Software).

[2] = biological target: T2, His-DNMT1 (182 kDa, human) (Homo sapiens, UniProt P26358); experiment: hDNMT1 assay ([methyl-3H] SAM Flashplate); format: biochemical; settings: read-out: hDNMT1 percentage of inhibition
T2 construct: His; made in house
Procedure: His-DNMT1 (182 kDa, human) was cloned, expressed and purified as described in the literature (Halby et al. ChemBioChem 2012, 13, 157-165). The reaction was performed in a […] total reaction volume in low volume NBS™ 384-well microplates (Corning), containing the tested compound (up to 1% DMSO), 1 μM of a SAM/[methyl-^3H] SAM (3 TBq/mmol, PerkinElmer) mix in a ratio of 3-to-1 (isotopic dilution 1*:3), 0.3 μM of biotinylated hemimethylated DNA duplex (5′-GATmCGCmCGATGmCGmCGAATmCGmCGATmCGATGmCGAT-3′ and BIOT-5′-[…]-3′), and 90 nM of DNMT1 in methylation buffer (20 mM HEPES pH 7.2, 1 mM EDTA, 50 mM KCl, 25 μg/mL BSA). The reaction was incubated at 37° C. for 2 hours. 8 μL, are then transferred into a streptavidin 96-well scintillant coated Flashplate™ (PerkinElmer) containing 190 μL of 20 μM SAH in 50 mM Tris-HCl pH 7.4. The Flashplate™ was agitated at room temperature for 1 hour and read in 200 μL of 50 mM Tris-HCl pH 7.4 on TopCount NXT (PerkinElmer). The percentage of inhibition is reported. The formula used to calculate the percentage of inhibition is [(X−Y)/X]×100, where X is the signal determined in the absence of the inhibitor and Y is the signal obtained in the presence of the inhibitor.

T1 sequence (Q9Y6K1 627-912): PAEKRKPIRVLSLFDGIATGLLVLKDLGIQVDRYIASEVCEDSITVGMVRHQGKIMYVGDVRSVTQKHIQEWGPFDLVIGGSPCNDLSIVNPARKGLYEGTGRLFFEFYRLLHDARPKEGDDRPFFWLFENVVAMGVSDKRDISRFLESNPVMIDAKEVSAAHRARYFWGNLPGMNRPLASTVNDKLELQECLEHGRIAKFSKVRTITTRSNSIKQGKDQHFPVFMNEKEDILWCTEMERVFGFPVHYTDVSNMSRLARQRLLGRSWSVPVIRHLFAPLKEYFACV
T2 sequence (P26358 whole entry): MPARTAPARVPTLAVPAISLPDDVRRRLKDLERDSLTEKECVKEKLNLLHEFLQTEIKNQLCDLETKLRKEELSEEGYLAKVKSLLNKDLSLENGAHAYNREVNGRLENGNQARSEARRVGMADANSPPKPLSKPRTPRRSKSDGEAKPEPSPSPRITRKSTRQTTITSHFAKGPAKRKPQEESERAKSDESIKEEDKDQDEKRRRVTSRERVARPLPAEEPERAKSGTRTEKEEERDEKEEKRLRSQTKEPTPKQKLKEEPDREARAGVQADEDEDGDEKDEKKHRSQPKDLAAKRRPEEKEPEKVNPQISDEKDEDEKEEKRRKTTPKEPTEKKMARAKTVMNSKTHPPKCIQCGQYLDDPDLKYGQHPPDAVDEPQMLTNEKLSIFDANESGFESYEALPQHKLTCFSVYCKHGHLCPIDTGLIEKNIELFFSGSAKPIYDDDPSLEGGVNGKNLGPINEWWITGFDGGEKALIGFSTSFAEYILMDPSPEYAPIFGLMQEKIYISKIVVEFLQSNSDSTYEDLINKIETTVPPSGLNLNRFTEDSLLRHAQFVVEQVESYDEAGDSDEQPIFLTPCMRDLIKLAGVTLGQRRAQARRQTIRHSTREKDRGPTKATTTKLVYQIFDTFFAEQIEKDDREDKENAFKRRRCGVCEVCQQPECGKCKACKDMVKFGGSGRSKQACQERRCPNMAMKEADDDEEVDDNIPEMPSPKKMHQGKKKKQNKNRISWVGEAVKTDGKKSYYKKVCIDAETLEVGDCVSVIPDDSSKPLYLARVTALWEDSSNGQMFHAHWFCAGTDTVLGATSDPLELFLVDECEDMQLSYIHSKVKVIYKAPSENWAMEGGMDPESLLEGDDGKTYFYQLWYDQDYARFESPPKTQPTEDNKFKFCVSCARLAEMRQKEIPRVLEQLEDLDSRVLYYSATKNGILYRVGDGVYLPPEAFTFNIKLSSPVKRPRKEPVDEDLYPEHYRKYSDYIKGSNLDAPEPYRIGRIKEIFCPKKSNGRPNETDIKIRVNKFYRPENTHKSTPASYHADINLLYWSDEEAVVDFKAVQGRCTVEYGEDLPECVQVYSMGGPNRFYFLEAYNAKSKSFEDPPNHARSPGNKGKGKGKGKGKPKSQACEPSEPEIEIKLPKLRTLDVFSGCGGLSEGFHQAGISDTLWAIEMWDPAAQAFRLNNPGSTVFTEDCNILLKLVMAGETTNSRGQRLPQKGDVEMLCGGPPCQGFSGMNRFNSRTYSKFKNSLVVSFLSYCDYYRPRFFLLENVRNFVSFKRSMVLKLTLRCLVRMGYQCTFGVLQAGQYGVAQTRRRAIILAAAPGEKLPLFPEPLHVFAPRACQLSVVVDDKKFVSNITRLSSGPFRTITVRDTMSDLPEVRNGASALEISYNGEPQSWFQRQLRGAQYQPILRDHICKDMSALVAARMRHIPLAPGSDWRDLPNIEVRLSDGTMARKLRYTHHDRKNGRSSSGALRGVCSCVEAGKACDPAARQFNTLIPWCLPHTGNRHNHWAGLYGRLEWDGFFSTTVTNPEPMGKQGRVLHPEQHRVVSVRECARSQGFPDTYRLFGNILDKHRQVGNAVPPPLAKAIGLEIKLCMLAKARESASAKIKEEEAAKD

For COc1ccc2cc1Oc1ccc(cc1)C[C@@H]1NCCc3cc(OC)c4c(c31)Oc1cc3c(cc1O4)CCN(C)[C@H]3C2 [Compound 1, Trilobine], the inhibition at 10 µM ([1]; 10 μM) was 78%, the inhibition at 32 µM ([1]; 32 μM) was 94% and the inhibition at 32 µM [2] was 50%.
